Data as given in patent US9512126B2, “Substituted imidazopyridazines” (Bayer Intellectual Property GmbH, priority 2012, dated 2016).

Assay: In vitro metabolic stability in rat hepatocytes (including calculation of hepatic in vivo blood clearance)
Format: in vitro ADME
Conditions: Han Wistar, hepatocytes (freshly isolated, suspension), read-out: CL (hepatic in vivo blood clearance) (converted)
Experimental: Investigation of In Vitro Metabolic Stability in Rat Hepatocytes (Including Calculation of Hepatic In Vivo Blood Clearance (CL))
Hepatocytes from Han Wistar rats were isolated via a 2-step perfusion method. After perfusion, the liver was carefully removed from the rat: the liver capsule was opened and the hepatocytes were gently shaken out into a Petri dish with ice-cold WME. The resulting cell suspension was filtered through sterile gaze in 50 ml falcon tubes and centrifuged at 50×g for 3 min at room temperature. The cell pellet was resuspended in 30 ml WME and centrifuged through a Percoll® gradient for 2 times at 100×g. The hepatocytes were washed again with Williams' medium E (WME) and resuspended in medium containing 5% FCS. Cell viability was determined by trypan blue exclusion.
For the metabolic stability assay liver cells were distributed in WME containing 5% FCS to glass vials at a density of 1.0×10^6 vital cells/ml. The test compound was added to a final concentration of 1 μM. During incubation, the hepatocyte suspensions were continuously shaken and aliquots were taken at 2, 8, 16, 30, 45 and 90 min, to which equal volumes of cold methanol were immediately added.
Samples were frozen at −20° C. over night, after subsequently centrifuged for 15 minutes at 3000 rpm and the supernatant was analyzed with an Agilent 1200 HPLC-system with LCMS/MS detection.
The half-life of a test compound was determined from the concentration-time plot. From the half-life the intrinsic clearances were calculated. Together with the additional parameters liver blood flow, amount of liver cells in vivo and in vitro. The hepatic in vivo blood clearance (CL) and the maximal oral bioavailability (Fmax) was calculated. The following parameter values were used: Liver blood flow—4.2 L/h/kg rat; specific liver weight—32 g/kg rat body weight; liver cells in vivo—1.1×10^8 cells/g liver, liver cells in vitro—0.5×10^6 ml.

For Cc1cc(-c2cnc3c(NCCC(F)(F)F)cc(C(F)(F)c4cccc(F)c4F)nn23)ccc1C(=O)NC1CC1 [Example 18, N-Cyclopropyl-4-{6-[(2,3-difluorophenyl)(difluoro)methyl]-8-[(3,3,3-trifluoropropyl)amino]imidazo[1,2-b]pyridazin-3-yl}-2-methylbenzamide], the CLhep predicted at 1 μM was 16.7 mL/min/kg.
COc1cccc(Cc2cc(NCCC(F)(F)F)c3ncc(-c4ccc(C(=O)NC5CC5)c(C)c4)n3n2)c1 [Comparative Example 4, N-cyclopropyl-4-{6-(3-methoxybenzyl)-8-[(3,3,3-trifluoropropyl)amino]imidazo[1,2-b]pyridazin-3-yl}-2-methylbenzamide, reference compound] showed a CLhep predicted at 1 μM of 56.7 mL/min/kg.
COc1ccc(C(=O)c2cc(NCCC(F)(F)F)c3ncc(-c4ccc(C(=O)NC5CC5)c(C)c4)n3n2)cc1 [Example 9, N-Cyclopropyl-4-{6-(4-methoxybenzoyl)-8-[(3,3,3-trifluoropropyl)amino]imidazo[1,2-b]pyridazin-3-yl}-2-methylbenzamide] gave a CLhep predicted at 1 μM of 20 mL/min/kg.
Molecule Cc1cc(-c2cnc3c(NCCC(F)(F)F)cc(C4(c5cccc(F)c5F)CC4)nn23)ccc1C(=O)NC1CC1 [Example 17, N-Cyclopropyl-4-{6-[1-(2,3-difluorophenyl)cyclopropyl]-8-[(3,3,3-trifluoropropyl)amino]imidazo[1,2-b]pyridazin-3-yl}-2-methylbenzamide] has a CLhep predicted at 1 μM of 35 mL/min/kg.
In the case of C=C(c1ccc(OC)c(F)c1)c1cc(NCCC(F)(F)F)c2ncc(-c3ccc(C(=O)NC4CC4)c(C)c3)n2n1 [Example 1, N-Cyclopropyl-4-{6-[1-(3-fluoro-4-methoxyphenyl)ethenyl]-8-[(3,3,3-trifluoropropyl)amino]imidazo[1,2-b]pyridazin-3-yl}-2-methylbenzamide], the CLhep predicted at 1 μM is reported as 43.3 mL/min/kg.
Molecule Cc1cc(-c2cnc3c(NCCC(F)(F)F)cc(C4(c5cc(F)ccc5O)CC4)nn23)ccc1C(=O)NC1CC1 [Example 23, N-cyclopropyl-4-{6-[1-(5-fluoro-2-hydroxyphenyl)cyclopropyl]-8-[(3,3,3-trifluoropropyl)amino]imidazo[1,2-b]pyridazin-3-yl}-2-methylbenzamide] has a CLhep predicted at 1 μM of 41.7 mL/min/kg.
In the case of C=C(c1cc(NCCC(F)(F)F)c2ncc(-c3ccc(C(=O)NC4CC4)c(C)c3)n2n1)c1cccc(F)c1F [Example 15, N-Cyclopropyl-4-{6-[1-(2,3-difluorophenyl)vinyl]-8-[(3,3,3-trifluoropropyl)amino]imidazo[1,2-b]pyridazin-3-yl}-2-methylbenzamide], the CLhep predicted at 1 μM is reported as 33.3 mL/min/kg.
With COc1ccc(Cc2cc(NCCC(F)(F)F)c3ncc(-c4ccc(C(=O)NC5CC5)c(C)c4)n3n2)cc1F [Comparative Example 1, N-Cyclopropyl-4-{6-(3-fluoro-4-methoxybenzyl)-8-[(3,3,3-trifluoropropyl)amino]imidazo[1,2-b]pyridazin-3-yl}-2-methylbenzamide, reference compound] the CLhep predicted at 1 μM was 50 mL/min/kg.
Cc1cc(-c2cnc3c(NCCC(F)(F)F)cc(C(F)c4cccc(F)c4)nn23)ccc1C(=O)NC1CC1 (racemic) [Example 5, (RS)—N-Cyclopropyl-4-{6-[fluoro(3-fluorophenyl)methyl]-8-[(3,3,3-trifluoropropyl)amino]imidazo[1,2-b]pyridazin-3-yl}-2-methylbenzamide] showed a CLhep predicted at 1 μM of 35 mL/min/kg.
Work on C=C(c1cccc(OC)c1)c1cc(NCCC(F)(F)F)c2ncc(-c3ccc(C(=O)NC4CC4)c(C)c3)n2n1 [Example 8, N-Cyclopropyl-4-{6-[1-(3-methoxyphenyl)vinyl]-8-[(3,3,3-trifluoropropyl)amino]imidazo[1,2-b]pyridazin-3-yl}-2-methylbenzamide] yielded a CLhep predicted at 1 μM of 30 mL/min/kg.
Cc1cc(-c2cnc3c(NCCC(F)(F)F)cc(C(=O)c4cccc(F)c4F)nn23)ccc1C(=O)NC1CC1 [Example 14, N-Cyclopropyl-4-{6-(2,3-difluorobenzoyl)-8-[(3,3,3-trifluoropropyl)amino]imidazo[1,2-b]pyridazin-3-yl}-2-methylbenzamide] gave a CLhep predicted at 1 μM of 35 mL/min/kg.
Work on Cc1cc(-c2cnc3c(NCCC(F)(F)F)cc(Cc4cccc(F)c4)nn23)ccc1C(=O)NC1CC1 [Comparative Example 3, N-Cyclopropyl-4-{6-(3-fluorobenzyl)-8-[(3,3,3-trifluoropropyl)amino]imidazo[1,2-b]pyridazin-3-yl}-2-methylbenzamide, reference compound] yielded a CLhep predicted at 1 μM of 40 mL/min/kg.
In the case of Cc1cc(-c2cnc3c(NCCC(F)(F)F)cc(C4(c5cccc(F)c5)CC4)nn23)ccc1C(=O)NC1CC1 [Example 25, N-cyclopropyl-4-{6-[1-(3-fluorophenyl)cyclopropyl]-8-[(3,3,3-trifluoropropyl)amino]imidazo[1,2-b]pyridazin-3-yl}-2-methylbenzamide], the CLhep predicted at 1 μM is reported as 33.3 mL/min/kg.
Molecule C=C(c1cccc(F)c1)c1cc(NCCC(F)(F)F)c2ncc(-c3ccc(C(=O)NC4CC4)c(C)c3)n2n1 [Example 24, N-cyclopropyl-4-{6-[1-(3-fluorophenyl)ethenyl]-8-[(3,3,3-trifluoropropyl)amino]imidazo[1,2-b]pyridazin-3-yl}-2-methylbenzamide] has a CLhep predicted at 1 μM of 36.7 mL/min/kg.
In the case of Cc1cc(-c2cnc3c(NCCC(F)(F)F)cc(C(O)c4cccc(F)c4O)nn23)ccc1C(=O)NC1CC1 (racemic) [Example 3, (RS)—N-Cyclopropyl-4-{6-[(3-fluoro-2-hydroxyphenyl)(hydroxy)methyl]-8-[(3,3,3-trifluoropropyl)amino]imidazo[1,2-b]pyridazin-3-yl}-2-methylbenzamide], the CLhep predicted at 1 μM is reported as 56.7 mL/min/kg.
Work on COc1ccc(C(=O)c2cc(NCCC(F)(F)F)c3ncc(-c4ccc(C(=O)NC5CC5)c(C)c4)n3n2)cc1F [Example 13, N-Cyclopropyl-4-{6-(3-fluoro-4-methoxybenzoyl)-8-[(3,3,3-trifluoropropyl)amino]imidazo[1,2-b]pyridazin-3-yl}-2-methylbenzamide] yielded a CLhep predicted at 1 μM of 18.3 mL/min/kg.
Molecule COc1ccc(Cc2cc(NCCC(F)(F)F)c3ncc(-c4ccc(C(=O)NC5CC5)c(C)c4)n3n2)cc1 [Comparative Example 5, N-Cyclopropyl-4-{6-(4-methoxybenzyl)-8-[(3,3,3-trifluoropropyl)amino]imidazo[1,2-b]pyridazin-3-yl}-2-methylbenzamide, reference compound] has a CLhep predicted at 1 μM of 45 mL/min/kg.
For COc1cccc(C(=O)c2cc(NCCC(F)(F)F)c3ncc(-c4ccc(C(=O)NC5CC5)c(C)c4)n3n2)c1 [Example 7, N-Cyclopropyl-4-{6-(3-methoxybenzoyl)-8-[(3,3,3-trifluoropropyl)amino]imidazo[1,2-b]pyridazin-3-yl}-2-methylbenzamide], the CLhep predicted at 1 μM was 51.7 mL/min/kg.
COc1ccc(C(F)(F)c2cc(NCCC(F)(F)F)c3ncc(-c4ccc(C(=O)NC5CC5)c(C)c4)n3n2)cc1 [Example 16, N-Cyclopropyl-4-{6-[difluoro(4-methoxyphenyl)methyl]-8-[(3,3,3-trifluoropropyl)amino]imidazo[1,2-b]pyridazin-3-yl}-2-methylbenzamide] gave a CLhep predicted at 1 μM of 31.7 mL/min/kg.
In the case of Cc1cc(-c2cnc3c(NCCC(F)(F)F)cc(C(O)c4cc(F)ccc4F)nn23)ccc1C(=O)NC1CC1 (racemic) [Example 11, (RS)—N-Cyclopropyl-4-{6-[(2,5-difluorophenyl)(hydroxy)methyl]-8-[(3,3,3-trifluoropropyl)amino]imidazo[1,2-b]pyridazin-3-yl}-2-methylbenzamide], the CLhep predicted at 1 μM is reported as 38.3 mL/min/kg.
Molecule Cc1cc(-c2cnc3c(NCCC(F)(F)F)cc(C(C)(O)c4cccc(F)c4O)nn23)ccc1C(=O)NC1CC1 (racemic) [Example 4, (RS)—N-Cyclopropyl-4-{6-[1-(3-fluoro-2-hydroxyphenyl)-1-hydroxyethyl]-8-[(3,3,3-trifluoropropyl)amino]imidazo[1,2-b]pyridazin-3-yl}-2-methylbenzamide] has a CLhep predicted at 1 μM of 45 mL/min/kg.
Molecule C=C(c1cc(NCCC(F)(F)F)c2ncc(-c3ccc(C(=O)NC4CC4)c(C)c3)n2n1)c1cc(F)ccc1O [Example 22, N-cyclopropyl-4-{6-[1-(5-fluoro-2-hydroxyphenyl)ethenyl]-8-[(3,3,3-trifluoropropyl)amino]imidazo[1,2-b]pyridazin-3-yl}-2-methylbenzamide] has a CLhep predicted at 1 μM of 50 mL/min/kg.
Molecule COc1ccc(C(F)(F)c2cc(NCCC(F)(F)F)c3ncc(-c4ccc(C(=O)NC5CC5)c(C)c4)n3n2)cc1F [Example 2, N-Cyclopropyl-4-{6-[difluoro(3-fluoro-4-methoxyphenyl)methyl]-8-[(3,3,3-trifluoropropyl)amino]imidazo[1,2-b]pyridazin-3-yl}-2-methylbenzamide] has a CLhep predicted at 1 μM of 25 mL/min/kg.
Work on Cc1cc(-c2cnc3c(NCCC(F)(F)F)cc(C(=O)c4cc(F)ccc4F)nn23)ccc1C(=O)NC1CC1 [Example 12, N-Cyclopropyl-4-{6-(2,5-difluorobenzoyl)-8-[(3,3,3-trifluoropropyl)amino]imidazo[1,2-b]pyridazin-3-yl}-2-methylbenzamide] yielded a CLhep predicted at 1 μM of 23.3 mL/min/kg.
Cc1cc(-c2cnc3c(NCCC(F)(F)F)cc(Cc4cccc(F)c4O)nn23)ccc1C(=O)NC1CC1 [Comparative Example 2, N-Cyclopropyl-4-{6-(3-fluoro-2-hydroxybenzyl)-8-[(3,3,3-trifluoropropyl)amino]imidazo[1,2-b]pyridazin-3-yl}-2-methylbenzamide, reference compound] showed a CLhep predicted at 1 μM of 68.3 mL/min/kg.
